Data from US20130123323A1, “FUNGICIDAL PYRAZOLES” (E I DU PONT DE NEMOURS AND COMPANY, priority 2010, published 2013).

Columns and labels:
Format in all cases: in vivo
[1] = tested on: Puccinia recondita f. sp. tritici; experiment: Test E1: wheat leaf rust, wheat seedlings sprayed after inoculation; conditions: wheat seedlings inoculated, 24 h + 2 days at 20° C., then sprayed to run-off; visual rating 4 days later; 100 = 100% disease control; triplicate averaged
Experimental: (§1) General protocol for preparing test suspensions for Tests A-F: the test compounds were first dissolved in acetone in an amount equal to 3% of the final volume and then suspended at the desired concentration (in ppm) in acetone and purified water (50/50 mix) containing 250 ppm of the surfactant Trem® 014 (polyhydric alcohol esters). The resulting test suspensions were then used in Tests A-F. Each test was conducted in triplicate, and the results were averaged. Spraying a 200 ppm test suspension to the point of run-off on the test plants was the equivalent of a rate of 800 g/ha. Wheat seedlings were inoculated with a spore suspension of Puccinia recondita f. sp. tritici (the causal agent of wheat leaf rust) and incubated in a saturated atmosphere at 20° C. for 24 h, and then moved to a growth chamber at 20° C. for 2 days. At the end of this time the test suspension was sprayed to the point of run-off on the wheat seedlings, and then the seedlings were moved to a growth chamber at 20° C. for 4 days, after which time visual disease ratings were made. Results for Tests A-F are given in Table A. In the Table, a rating of 100 indicates 100% disease control and a rating of 0 indicates no disease control (relative to the controls). A dash (-) indicates no test results.

[2] = tested on: Alternaria solani; experiment: Test B: tomato early blight, test suspension sprayed on tomato seedlings the day before inoculation; conditions: sprayed to run-off, inoculated following day, visual rating after 48 h at 27° C. + 5 days at 20° C., 100 = 100% disease control, triplicate averaged
Experimental: General protocol for preparing test suspensions for Tests A-F: the test compounds were first dissolved in acetone in an amount equal to 3% of the final volume and then suspended at the desired concentration (in ppm) in acetone and purified water (50/50 mix) containing 250 ppm of the surfactant Trem® 014 (polyhydric alcohol esters). The resulting test suspensions were then used in Tests A-F. Each test was conducted in triplicate, and the results were averaged. Spraying a 200 ppm test suspension to the point of run-off on the test plants was the equivalent of a rate of 800 g/ha. The test suspension was sprayed to the point of run-off on tomato seedlings. The following day the seedlings were inoculated with a spore suspension of Alternaria solani (the causal agent of tomato early blight) and incubated in a saturated atmosphere at 27° C. for 48 h, and then moved to a growth chamber at 20° C. for 5 days, after which time visual disease ratings were made. Results for Tests A-F are given in Table A. In the Table, a rating of 100 indicates 100% disease control and a rating of 0 indicates no disease control (relative to the controls). A dash (-) indicates no test results.

[3] = tested on: Puccinia recondita f. sp. tritici; experiment: Test E2: wheat leaf rust, test suspension sprayed on wheat seedlings the day before inoculation; conditions: sprayed to run-off, inoculated following day, visual rating after 24 h + 6 days at 20° C., 100 = 100% disease control, triplicate averaged
Experimental: as §1, with “The test suspension was sprayed to the point of run-off on wheat seedlings. The following day the” for “Wheat”, “6” for “2 days. At the end of this time the test suspension was sprayed to the point of run-off on the wheat seedlings, and then the seedlings were moved to a growth chamber at 20° C. for 4”

[4] = tested on: Botrytis cinerea; experiment: Test A: tomato botrytis, test suspension sprayed on tomato seedlings the day before inoculation; conditions: sprayed to run-off, inoculated following day, visual rating after 48 h at 20° C. + 3 days at 24° C., 100 = 100% disease control, 0 = no control, triplicate averaged
Experimental: (§2) General protocol for preparing test suspensions for Tests A-F: the test compounds were first dissolved in acetone in an amount equal to 3% of the final volume and then suspended at the desired concentration (in ppm) in acetone and purified water (50/50 mix) containing 250 ppm of the surfactant Trem® 014 (polyhydric alcohol esters). The resulting test suspensions were then used in Tests A-F. Each test was conducted in triplicate, and the results were averaged. Spraying a 200 ppm test suspension to the point of run-off on the test plants was the equivalent of a rate of 800 g/ha. The test suspension was sprayed to the point of run-off on tomato seedlings. The following day the seedlings were inoculated with a spore suspension of Botrytis cinerea (the causal agent of tomato botrytis) and incubated in saturated atmosphere at 20° C. for 48 h, and then moved to a growth chamber at 24° C. for 3 days, after which time visual disease ratings were made. Results for Tests A-F are given in Table A. In the Table, a rating of 100 indicates 100% disease control and a rating of 0 indicates no disease control (relative to the controls). A dash (-) indicates no test results.

[5] = tested on: Blumeria graminis f. sp. tritici; experiment: Test F: wheat powdery mildew, test suspension sprayed on wheat seedlings the day before inoculation; conditions: sprayed to run-off, inoculated with spore dust following day, visual rating after 8 days at 20° C., 100 = 100% disease control, triplicate averaged
Experimental: as §2, with “on wheat” for “on tomato”, “spore dust” for “spore suspension”, “of Blumeria graminis f. sp. tritici (also known as Erysiphe graminis f. sp. tritici, the” for “of Botrytis cinerea (the”, “of wheat powdery mildew)” for “of tomato botrytis)”, “in a growth chamber” for “in saturated atmosphere”, “for 8” for “for 48 h, and then moved to a growth chamber at 24° C. for 3”

[6] = tested on: Septoria nodorum; experiment: Test C: wheat glume blotch, test suspension sprayed on wheat seedlings the day before inoculation; conditions: sprayed to run-off, inoculated following day, visual rating after 48 h at 24° C. + 9 days at 20° C., 100 = 100% disease control, triplicate averaged
Experimental: (§3) General protocol for preparing test suspensions for Tests A-F: the test compounds were first dissolved in acetone in an amount equal to 3% of the final volume and then suspended at the desired concentration (in ppm) in acetone and purified water (50/50 mix) containing 250 ppm of the surfactant Trem® 014 (polyhydric alcohol esters). The resulting test suspensions were then used in Tests A-F. Each test was conducted in triplicate, and the results were averaged. Spraying a 200 ppm test suspension to the point of run-off on the test plants was the equivalent of a rate of 800 g/ha. The test suspension was sprayed to the point of run-off on wheat seedlings. The following day the seedlings were inoculated with a spore suspension of Septoria nodorum (the causal agent of wheat glume blotch) and incubated in a saturated atmosphere at 24° C. for 48 h, and then moved to a growth chamber at 20° C. for 9 days, after which time visual disease ratings were made. Results for Tests A-F are given in Table A. In the Table, a rating of 100 indicates 100% disease control and a rating of 0 indicates no disease control (relative to the controls). A dash (-) indicates no test results.

[7] = tested on: Septoria tritici; experiment: Test D: wheat leaf blotch, test suspension sprayed on wheat seedlings the day before inoculation; conditions: sprayed to run-off, inoculated following day, visual rating after 48 h at 24° C. + 19 days at 20° C., 100 = 100% disease control, triplicate averaged
Experimental: as §3, with “of Septoria tritici (the causal” for “of Septoria nodorum (the causal”, “of wheat leaf blotch) and” for “of wheat glume blotch) and”, “incubated in saturated atmosphere” for “incubated in a saturated atmosphere”, “and then the seedlings were moved to” for “and then moved to”, “C. for 19 additional days, after” for “C. for 9 days, after”

SMILES | Test E1 disease control rating [1] | Test B disease control rating [2] | Test E2 disease control rating [3] | Test A disease control rating [4] | Test F disease control rating [5] | Test C disease control rating [6] | Test D disease control rating [7]
Cc1nn(C)c(C(Cl)c2ccc(F)cc2F)c1-c1ccc(F)cc1Cl (centres unmarked) [Compound 2, 5-[Chloro(2,4-difluorophenyl)methyl]-4-(2-chloro-4-fluorophenyl)-1,3-dimethyl-1H-pyrazole] | 0% | 0% | 94% | 99% | 0% | 0% | 100%
Cc1nn(C)c(C(F)c2ccc(F)cc2Cl)c1-c1c(F)cccc1Cl (centres unmarked) [Compound 6] | – | – | 98% | – | 87% | – | 96%
COc1cc(F)c(C(F)c2c(-c3c(F)cccc3F)c(C)nn2C)c(F)c1 (centres unmarked) [Compound 3] | 98% | 46% | 100% | 100% | 99% | 0% | 100%
Cc1nn(C)c(C(F)c2ccc(F)cc2F)c1-c1c(F)cccc1F (centres unmarked) [Compound 4] | 66% | 98% | 18% | 99% | 0% | 0% | 52%
Cc1nn(C)c(C(Cl)c2ccc(F)cc2Cl)c1-c1c(F)cccc1Cl (centres unmarked) [Compound 7] | – | – | 100% | – | 100% | – | 100%
Cc1nn(C)c(C(F)c2ccc(F)cc2F)c1-c1ccc(F)cc1Cl (centres unmarked) [Compound 1, 4-(2-Chloro-4-fluorophenyl)-5-[(2,4-difluorophenyl)fluoromethyl]-1,3-dimethyl-1H-pyrazole] | 40% | 83% | 99% | 100% | 69% | 0% | 98%
Cc1nn(C)c(C(Cl)c2ccc(F)cc2F)c1-c1c(F)cccc1F (centres unmarked) [Compound 5] | 9% | 100% | 100% | 100% | 100% | 89% | 100%
